The source of these data is patent US8158589B2, “Peptides with the capacity to bind to transforming growth factor β1 (TGF-β1)” (Proyecto Biomedicine Cima, S.L., priority 2003, dated 2012).

The target of test [1] is T1, TGF-β1 (Rattus norvegicus, UniProt P17246).
T1 construct: from tissue; host or cells: cornea of Long-Evans rats
Nature of the test: Corneal fibrosis and haze after 1 N NaOH damage, topical eye drops, photographs analysed with ImageJ. The class given is in vivo, Long-Evans rats. Conditions: fifth formulation eye drops, treated right eye vs control left eye. From the text:
Male Long-Evans rats aged 10 weeks were used, divided into 5 groups: • Group 1: 12 rats, 6 treated with dexamethasone and 6 treated with mitomycin C • Group 2: 12 rats, 6 treated with p17 of the first formulation (see section 6.1.2.b) and 6 treated with p144 of the first formulation (see section 6.1.2.b) • Group 3: 12 rats, 6 treated with p17 of the second formulation (see section 6.1.2.b) and 6 treated with p144 of the second formulation (see section 6.1.2.b) • Group 4: 12 rats, 6 treated with p17 of the third formulation (see section 6.1.2.b) and 6 treated with p144 of the third formulation (see section 6.1.2.b) • Group 5: 12 rats, 6 treated with p17 of the fourth formulation (see section 6.1.2.b) and 6 treated with p144 of the fourth formulation (see section 6.1.2.b) • Group 6: 12 rats, 6 treated with p17 of the fifth formulation (see section 6.1.2.b) and 6 treated with p144 of the fifth formulation (see section 6.1.2.b)
To perform the damage in the cornea, the animals were anesthetized with isoflurane and a 5 mm Whatman paper disc impregnated in 1 N NaOH for 30 seconds was applied to them in the central part of the eye. After the damage, they were washed with abundant physiological saline serum and an antibiotic ointment was applied to them to prevent possible infections in the affected area.
After conducting several in vivo studies with the previously described groups of animals, it could be concluded that the chemical damage occurring after the application of NaOH for 30 seconds caused an excessive lesion for the study which was to be conducted, therefore it was decided to conduct new experiments reducing the time to 15 seconds.
It was randomly established that the left eye of each animal would act as a control and that the right eye would be the treated eye, such that the same animals acts as a control in addition to being treated. It must be pointed out that all the animals received antibiotic treatment in both eyes daily only during the first week of the study for the purposes of avoiding microbial keratitis.
Starting from 0.15% sodium hyaluronate (Hyabak 10 mL, Thea) without preservatives: • p144: 20 mg were dissolved in 5 ml of eye drops, 40 μl of saturated concentrated NaOH were incorporated, stirring and adding in portions of 5 μl. It was sonicated until solubilization. To adjust the pH, 500 μl of 1M Hepes were added, such that the pH changed from 10.5 to 7 • p144 control: 40 μl of saturated NaOH and 500 μl of 1 M HEPES (final concentration of HEPES 50 mM) • p17: 20 mg were dissolved in 5 ml of the eye drops, it was sonicated until complete solubilization and it was incorporated to the vial with a 10 ml syringe and a blue needle to perforate the filter of the contained (final concentration 2 mg/ml) • p17 control: non-manipulated eye drops • Note: The formulations were maintained at 4° C. throughout the study.
The administration of the treatment was initiated twenty-four hours after the damage. After that time a follow-up of the damage was performed, which consisted of taking photographs at days 0, 7, 14, 21, 28 and 35. To take the photographs the animals were anesthetized with isoflurane. Photographs were taken of both the control eye (left) and of the treated eye (right) with and without fluorescein. The photographs with fluorescein allowed to observe the evolution of the epithelial closure of the generated lesion, whereas the photographs without fluorescein show the evolution of the haze of the lesioned area. […]

The target of test [2] is TGF-β1 (Homo sapiens, UniProt P01137). In words: CTGF mRNA expression induced by TGF-β1 in IMR-90 lung fibroblasts, real time RT-PCR. On the set-up: purchased R&D Systems; host or cells: added to IMR-90 human lung fibroblasts. Conditions: IMR-90 cells, 5 ng/ml TGF-β1, peptide 100 μg/ml, 6 hours. It counts as cell-based. On the procedure: IMR-90 human lung fibroblasts (ATCC, Manassas, Va.) were cultured in EMEM medium (Cambrex, Belgium) supplemented with 10% fetal bovine serum (FBS), 1 mM sodium pyruvate, 0.1 mM nonessential amino acids, 100 U/ml penicillin and 100 μg/ml streptomycin (Gibco BRL, UK). For experiments, 6×10^4 cells/well were cultured in 6-well plates in 2 ml of medium and when they were 80% confluent, medium was replaced with serum-free EMEM for 48 h to induce quiescence. TGF-β1 (5 ng/ml) and P17 (100 μg/ml) were co-incubated for 90 min at 37° C. to allow binding of both molecules before addition to cell cultures. Quiescent cells were then stimulated with TGF-β1 and/or P17 for up to 6 or 24 h. After these incubation periods, fibroblasts were harvested for gene and protein analysis, respectively.
Chain of TGF-β1 (Homo sapiens, UniProt P01137) (P01137 279-390 limits assumed): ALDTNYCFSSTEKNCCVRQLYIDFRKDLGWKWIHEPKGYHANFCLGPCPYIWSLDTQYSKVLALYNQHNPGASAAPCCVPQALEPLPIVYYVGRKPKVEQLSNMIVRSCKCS
Total RNA was purified from IMR-90 fibroblasts and whole lung samples using Ultraspec RNA (Biotecx; Houston, Tex.) according to the manufacturer's instructions. […] Expression of human Connective Tissue Growth Factor (CTGF) mRNA induced by TGF-β1 in IMR-90 fibroblasts was measured by real time RT-PCR using an ICycler and IQ SYBR Supermix (Bio-Rad, Italy). […] For in vivo analysis, expression of murine Fibronectin (FN), extra domain A of Fibronectin (EDA-FN), Collagen type I and Interferon gamma (IFN-γ) was measured in lungs, using Histone 3 as internal control. […]
(Quantitative PCR measures a nucleic acid by following its amplification.)

Ends that are not written are not given here.

T1 sequence (P17246 279-390 limits assumed): as the sequence (P01137 279-390 limits assumed) above, with A75S counted along it

For the sequence “KRIWFIPRSSWYERA [SEQ ID NO: 17, KRIWFIPRSSWYERA]”, at TGF-β1 [1], the corneal haze entry was “clear decrease” and the “epithelial closure (fluorescein)” value is “clear decrease”. For the same sequence, the “CTGF mRNA expression induced by TGF-β1” value at TGF-β1 [2] is “significantly decreased”.
